Results published in patent US10774064B2 (Cadent Therapeutics, Inc., priority 2016, dated 2020).
Read-outs that look alike come from different tables or passages of the source.

Key:
[1] = brain concentration by mass spectrometry from brains harvested after tremor recording; free brain concentration and % SK2 SC100; assay type: in vivo, Male Sprague Dawley rats; details: male, Sprague Dawley, rat, oral, 30 mg/Kg
Source text: The amount of free compound is then expressed in terms of its potency against the SK2 channel as follows: % SK2 SC100=CFB/SK2 SC100×100, where SK2 SC100 (Table 3, “SK2 SC100”) is the measured value of potency of the compound against SK2 channels and % SK2 SC100 (Table 3, “% SK2 SC100”) is the free brain concentration (CFB) normalized to SK2 SC100. Thus the % SK2 SC100 gives a measure of the degree to which each of the compounds is modulating SK2 channels regardless of differences in potency or exposure. Values are given in […]

harmaline induced tremor = harmaline induced tremor in rats; assay type: in vivo, Male Sprague Dawley rats
Description: Immediately following harmaline injection, animals were placed in the tremor quantification apparatus and tremor events were quantified for 60 minutes. A tremor event signal was generated when a small metal transmitter band fitted to the right forepaw of the animal moved within the electromagnetic field generated by a loop antenna within the testing apparatus. Outputs from the amplifier were digitized at a sampling rate of 1,000 Hz and the signal was processed and analyzed using LabView software (National Instruments). To minimize signal from ambulatory and grooming behavior, the signal was filtered with a 128-ms nonweigthed moving average filter, and events with amplitudes >0.5 V and lasting >300 ms in duration were counted as a tremor event. Data were analyzed in one-minute bins over the course of the test and presented as the sum of tremor events over the entire 60 minute test.

[2] = biological target: T1, small-conductance Ca2+-activated K+ channels (SK channels, subtype 2) (Homo sapiens, UniProt Q9H2S1); assay: whole-cell patch-clamp of ionic current through SK2 channels in HEK293 cells (SC100); assay type: cell-based; details: potency against SK2 channels
T1 construct: expressed in transfected cells; host or cells: HEK293
Procedure, shortened: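 Whole-cell patch-clamp recording of current in HEK293 cells expressing SK2 channels. SC100 is the compound concentration that increases basal current by 100%.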

## Cc1ccn(-c2nc(NC3CCC(F)(F)CC3)cc(N3CCOCC3)n2)n1 [Compound 359, N-(4,4-difluorocyclohexyl)-2-(3-methyl-1H-pyrazol-1-yl)-6-morpholinopyrimidin-4-amine]
[1]; CFB=CMB×BFF, read-out: Calculated Free Brain Concentration
  concentration at 90 min: 80 nM
[1]; brains harvested immediately following tremor recording, mass spectrometry, at minimally efficacious dose, read-out: Measured Brain Concentration
  concentration at 90 min: 1300 nM
Harmaline induced tremor; 30 mg/Kg oral, 30 minutes prior to harmaline injection, FIG. 1
  inhibition of tremors (sum of tremor events over 60 minutes): significant inhibition of tremors
Harmaline induced tremor; oral administration 30 minutes prior to harmaline injection, rats
  Minimally Efficacious Dose: 30 mg/kg
[2]
  Measured SK2 SC100: 0.5 µM
